{
  "source": "paper PMC8877233",
  "about": "“The Hydrophobicity and Antifungal Potentiation of Burkholdine Analogues” (Molecules, 2022)",
  "key": {"S. cerevisiae [1]": {"test_system": "S. cerevisiae", "experiment": "Potentiation assay with G418", "type": "cell-based", "settings": "for potentiation of the effect of G418: S. cerevisiae, peptide dose 100 µg/mL, result in words", "procedure": "(§1) Two antibiotics with different mechanisms of action can have a synergistic effect, together exerting an antifungal activity higher than the sum of their individual activities. Accordingly, the potentiation of the antifungal effect of G418 (Geneticin), an aminoglycosyl-type antibiotic that inhibits protein biosynthesis by binding to the ribosome 70S and 80S subunits, and zeocin (phleomucin D1), a glycopeptide antibiotic and DNA intercalator, by cyclic peptides (3a)–(8) was evaluated. Although the relatively high PSA and negative logP values of Bk analogues (3a)–(8) are not conductive to cell penetration, there was the possibility that their fatty side chains have an affinity for cell surfaces. […] The mechanism of action is not clear, but it is possible that the interaction of the cyclic peptides (3a)–(8) with the cell wall increases its susceptibility to penetration by G418.\n(§2) The prepared test bacteria (50 µL) were placed in well A1–A12 of a 96-well plate. G418 (200 mg/mL, 108321-42-2, Nacalai tesque, Japan) in H2O, then medium […] was added to A1, pipetting was performed, and 50 µL was extracted from A1 and placed in A2. This operation was repeated until A11, and 50 µL extracted from A11 was discarded. After 30 min, Bk analogue (200 μg/mL) in medium […] was added to each solution (final concentration = 100 μg/mL). The well plate was closed and incubated at 30 °C. After 24 h, the MIC and potentiation values were evaluated."}, "[2]": {"test_system": "S. cerevisiae (ATCC204504)", "type": "cell-based", "settings": "ATCC204504, 24 h", "procedure": "Bacto yeast extract (0.63 g, 70161, Fluka, Barcelona, Spain), peptone (1.00 g, 26421, Mikuni, Japan), and glucose (1.00 g, 16806-25, Nacalai tesque, Japan) were added to H2O (50 mL) at room temperature and the mixture was heated to 60 °C. After 30 min, the mixture was sterilized by heating in an autoclave at 121 °C for 20 min.\nDMSO (8 µL, 13406-55, Nacalai tesque, Japan) was added to YPD medium (750 µL). The test fungus culture solution (3 µL) was added to this solution (1.5 mL).\nThe inhibitor (each 1.0 mg; 3a–h, 4a–b, 5a–b, 6a–b, 7, 8) was dissolved in DMSO (40 µL).\nThe prepared test bacteria (50 µL) were placed in A1–A12 of a 96-well plate. Bk analogue (50 µL) was added to A1, pipetting was performed, and then 50 µL was extracted from A1 and placed in A2. This operation was repeated until A11, and 50 µL extracted from A11 was discarded. The well plate was closed and incubated at 30 °C. After 24 h, the MIC values were evaluated."}, "[3]": {"experiment": "RP-HPLC retention time as measure of hydrophilicity/hydrophobicity", "type": "physicochemical", "settings": "chromatographic, Cosmosil 5C18-AR-II 4.6 x 150 mm, linear gradient 30–70% MeCN/H2O (0.1% TFA) for 30 min, 1 mL/min, UV 220 nm", "procedure": "[…] In all cases, the retention times of the (S)-Dab-containing peptides were shorter than those of the (R)-Dab-containing peptides, which were similar to those bearing L-Orn. The retention times of the cyclic peptides were shorter for Tat > D-Ser > L-Thr > L-Ser, while peptides bearing the undecanoic acid moiety eluted […] than those bearing the decanoic acid by about 2 min."}, "S. cerevisiae [4]": {"test_system": "S. cerevisiae", "experiment": "Potentiation assay with zeocin", "type": "cell-based", "settings": "assays attempted three times", "procedure": "as §1\nas §2, with “After 24 h, the MIC and potentiation values were evaluated.” left out"}, "Candida albicans": {"test_system": "Candida albicans", "settings": "cited from earlier work", "description": "The burkholdines (Bks) are a family of 25-membered cyclic lipopeptides composed of eight amino acids arranged in a lactam ring bearing a lipophilic side chain, which were first isolated from the proteobacteria Burkholderia ambifaria 2.2N by Schmidt in 2010 [1, 2, 3, 4]. […] The mechanism of this activity is thought to entail the inhibition of fungal β-glucan synthase, as is the case for the candine anti ..."}},
  "note": "Starred links: 1 amine or outer side, 2 acyl side, 3 side chain; linkers in the order of their positions; H or OH if unused. Positions of bridges follow the written chain, without caps; N, C: chain ends. Non-standard residues stand in square brackets, D forms with d. Residues, ends and D or L forms follow the SMILES beside them. X3 = CCCCCCCCCCC(=O)N[C@H](C(=O)NC[C@@H](CC(=O)[*:1])N[*:2])[C@@H](C)O; X2 = CCCCCCCCNC(=O)[C@H](O)[C@@H](O)C(=O)NC[C@@H](CC(=O)[*:1])N[*:2]",
  "data": [
    {"compound": "CCCCCCCCCCC(=O)N[C@H](C(=O)NC[C@H]1CC(=O)N[C@H](CO)C(=O)N[C@H](Cc2ccc(O)cc2)C(=O)N[C@H](CC(N)=O)C(=O)NCC(=O)N[C@@H](CC(N)=O)C(=O)N[C@@H](CO)C(=O)N[C@@H](CC(N)=O)C(=O)N1)[C@@H](C)O", "note": "[Compound 4b, Cyclo-[Undecanoic Acid-Thr-(R)-7-D-Ser-D-Tyr-D-Asn-Gly-Asn-Ser-Asn]] ([dS][dY][dN]GNSN; linker N-C via X3)", "values": [
      {"measurement": "potentiation of the effect of G418", "setting": "S. cerevisiae [1]", "value": "weak potentiating effects"},
      {"measurement": "MIC", "setting": "[2]", "value": ">200", "unit": "µg/mL"},
      {"measurement": "tR", "setting": "[3]", "value": 10.7, "unit": "min"}
    ]},
    {"compound": "CCCCCCCCNC(=O)[C@H](O)[C@@H](O)C(=O)NC[C@H]1CC(=O)N[C@H](CO)C(=O)N[C@H](Cc2ccc(O)cc2)C(=O)N[C@H](CC(N)=O)C(=O)NCC(=O)N[C@@H](CC(N)=O)C(=O)N[C@@H](CO)C(=O)N[C@@H](CC(N)=O)C(=O)N1", "note": "[Compound 5b, Cyclo-[(2R,3R)-2,3-dihydroxy-4-(octylamino)-4-oxobutanoic Acid-(R)-7-D-Ser-D-Tyr-D-Asn-Gly-Asn-Ser-Asn]] ([dS][dY][dN]GNSN; linker N-C via X2)", "values": [
      {"measurement": "potentiation of the effect of G418", "setting": "S. cerevisiae [1]", "value": "weak potentiating effects"},
      {"measurement": "MIC", "setting": "[2]", "value": ">200", "unit": "µg/mL"},
      {"measurement": "tR", "setting": "[3]", "value": 6.4, "unit": "min"}
    ]},
    {"compound": "CN[C@@H]1[C@@H](O)[C@@H](O[C@@H]2[C@@H](O)[C@H](O[C@H]3O[C@H]([C@@H](C)O)[C@@H](O)[C@H](O)[C@H]3N)[C@@H](N)C[C@H]2N)OC[C@]1(C)O", "note": "[Compound G418, G418, reference compound]", "values": [
      {"measurement": "MIC", "setting": "S. cerevisiae [1]; Saccharomyces cerevisiae, 24 h, read-out: MIC of G418 alone", "value": 25000, "unit": "µg/mL"}
    ]},
    {"compound": "Cc1c(N)nc([C@H](CC(N)=O)NC[C@H](N)C(N)=O)nc1C(=O)N[C@H](C(=O)N[C@H](C)[C@@H](O)[C@H](C)C(=O)N[C@H](C(=O)NCCC1=N[C@@H](c2nc(C(=O)NCCCCN=C(N)N)cs2)CS1)[C@@H](C)O)[C@@H](O[C@@H]1O[C@@H](CO)[C@@H](O)[C@H](O)[C@@H]1O[C@H]1O[C@H](CO)[C@@H](O)[C@H](OC(N)=O)[C@@H]1O)c1cnc[nH]1", "note": "[zeocin]", "values": [
      {"measurement": "MIC of zeocin alone", "setting": "S. cerevisiae [4]", "value": 3130, "unit": "µg/mL"}
    ]},
    {"compound": "caspofungin", "values": [
      {"measurement": "MIC90", "setting": "Candida albicans", "value": 0.25, "unit": "µg/mL"}
    ]},
    {"compound": "micafungin", "values": [
      {"measurement": "MIC90", "setting": "Candida albicans", "value": 0.015, "unit": "µg/mL"}
    ]}
  ]
}
